The text below walks through data of patent US5444042A, “Method of treatment of neurodegeneration with calpain inhibitors” (Cortex Pharmaceuticals, priority 1994, dated 1995).

The target in one data set is Calpain II. Kind of data set: Calpain II KI (Table 1B(ii)). It counts as biochemical. An excerpt: (§1) We tested the ability of an additional group of Peptide Keto-Compounds to inhibit several proteases in order to evaluate their specificity for Calpain.
A further data set can be described thus: Stability in plasma. Format: in vitro ADME. The following applies: unit assumed. An excerpt:
We determined the haft-life of several Peptide Keto-Compounds in both plasma and liver homogenates.

The next data set concerns the target PP Elastase (Sus scrofa, UniProt P00772). Description: PP Elastase KI (Table 1B(ii)). It counts as biochemical.
Excerpt: as §1

Another data set concerns the target Chym (Bos taurus, UniProt P00766). Kind of data set: Chym KI (Table 1B(ii)). It counts as biochemical.
Excerpt: as §1

A further data set deals with Calpain within platelets. Description: Platelet membrane permeation assay, spectrin proteolysis (Examples 4A, 4B). Format: cell-based, rat. The note with it: for inhibition of Calpain within platelets: 100 μM, A23187 1 μM; for IC50: concentration at which 50% of the Calpain activation present in controls occurred. As to the method: Platelets were isolated by a modification of the method of Ferrell and Martin, J Biol. Chem., 264:20723-20729 (1989), the disclosure of which is hereby incorporated by reference. Blood (15-20 ml) was drawn from male Sprague-Dawley rats into 100 mM EDTA-citrate containing 10 units heparin, and centrifuged 30 minutes at 1600 rpm at room temperature. The plasma was resuspended in 15 ml buffer 1 (136 mM NaCl, 2.7 mM KCl, 0.42 mM NaH2 PO4, 12 mM NaHCO3, 2 mM MgCl2, 2 mg/ml BSA (Sigma), 5.6 mM glucose, 22 mM Na3 Citrate pH 6.5) and platelets were isolated at 2200 rpm at room temperature of 25 minutes. Platelets were resuspended to 10^7 cells/ml in buffer 2 (136 mM NaCl, 2.7 mM KCl, 0.42 NaH2 PO4, 12 mM NaHCO3, 2 mM MgCl, 1 mg/ml BSA, 5.6 mM glucose, 20 mM HEPES pH 7.4) and allowed to "rest" for a minimum of 10 minutes at room temperature before use.
Platelets were incubated for 5 minutes in the presence of inhibitor. In order to provide sufficient intracellular calcium to activate Calpain, the calcium ionophore A23187 was added to a final concentration of 1 μM. After a further 5 minute incubation, the platelets were harvested by centrifugation (1 min 10,000×g) and resuspended in 10% sodium dodecyl sulfate, 10 mM Tris pH=8.0, 5% β-mercaptoethanol, 0.02% bromophenol blue, and heated to 95° C. for 5 min. Samples were subjected to SDS-PAGE on 6% mini gels and transferred to nitrocellulose (Schleicher and Schuell BAS3) for 2 hours at 100 mA/gel in an LKB Novablot. Filters were blocked for 10 minutes in 0.25% gelatin, 1% BSA, 0.25% Triton X100, 0.9% NaCl, 10 mM Tris-Cl pH 7.5, incubated overnight in the same solution containing antibody to rat spectrin, washed 3×10 minutes with 10 mM Tris-Cl pH 7.5, 0.5 % Triton X100, incubated 4 hours in wash buffer plus alkaline phosphatase conjugated goat anti-rabbit antibody (Biorad), and washed as above. Filters were developed using the Biorad AP conjugate substrate kit. Spectrin immunoreactivity on the filters was quantitated by densitometry.

For data set [1], the system named is Calpain in crude brain extracts. Kind of data set: Ca2+-stimulated spectrin proteolysis in crude brain extracts (Example 2). It counts as biochemical. The following applies: 100 μM. Here is the method:
The activity of Calpain in crude brain extracts was measured by examining the Ca^2+ -stimulated proteolysis of the endogenous substrate spectrin. Brain tissue was homogenized in 10 mM Tris pH=7.4, 0.32M sucrose, 1 mM EGTA, 1 mM dithiothreitol and the nuclei and debris removed by low speed centrifugation. […] Proteolysis of spectrin was evaluated by western blot as described by Seubert, et at. (Brain Research, 459:226-232, 1988), the disclosure of which is hereby incorporated by reference. Briefly, a known quantity of a spectrin-containing sample treated with Calpain is separated by SDS-PAGE and immunoblotted with anti-spectrin antibody. The amount of spectrin immunoreactivity found corresponding to the characteristic BDP's is indicative of the amount of […] activity present in the sample. An examplary method for quantitating BDP's is to assay Spectrin BDP's by homogenizing brain parts in 20 mM Tris pH=7.2, 0.32M sucrose, 50 μM Ac-Leu-Leu-nLeu-H on ice. Homogenates are then mixed 1:1 with 10% SDS, 5% β-mercaptoethanol, 10% glycerol, 10 mM Tris pH=8.0, 0.5% bromophenolblue, heated to 95° C., and subjected to electrophoresis in 41/2% polyacrylamide gels. The proteins in the gels are transferred to nitrocellulose and the spectrin and BDP's detected using a rabbit polyclonal anti-spectrin antibody and established immunodetection methods. The amount of spectrin and BDP's in each sample can be quantitated by densitrometric scanning of the developed nitrocellulose.

For the next data set, the target named is Cathepsin B (Bos taurus, UniProt P07688). Kind of data set: Cathepsin B KI (Table 1B(ii)). It counts as biochemical. The note with it: read-out: KI CathB.
Excerpt: as §1

Where a SMILES comes first, the peptide text is derived from it. The star is where a group is joined. CH2Cl = ClC*

PP Elastase, sequence (P00772 27-266): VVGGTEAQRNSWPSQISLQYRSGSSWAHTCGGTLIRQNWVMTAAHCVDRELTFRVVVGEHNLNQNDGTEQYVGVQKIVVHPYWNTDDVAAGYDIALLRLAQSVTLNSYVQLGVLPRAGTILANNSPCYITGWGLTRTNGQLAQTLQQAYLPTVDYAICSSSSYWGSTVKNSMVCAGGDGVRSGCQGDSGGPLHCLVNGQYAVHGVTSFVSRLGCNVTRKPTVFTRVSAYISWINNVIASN

On to `CCOC(=O)C(=O)[C@H](CC)NC(=O)[C@H](CC(C)C)NC(=O)[C@H](CC(C)C)NC(=O)c1ccc2ccccc2c1` [2-NapCO-Leu-Leu-Abu-COOEt], for which the Ki (usually a dissociation constant, usually derived from enzyme kinetics or from competition with a known ligand) at Calpain II is 0.09 µM; at PP Elastase, 28 µM; on Chym, more than 300 µM. This molecule also gave a t1/2 plasma in “Stability in plasma” of 0.417 h.
Turning to `CCOC(=O)C(=O)C(CC)NC(=O)C(CC(C)C)NS(=O)(=O)c1ccc2ccccc2c1` (stereo not drawn) [2-NapSO2 -Leu-Abu-COOEt], the “inhibition of Calpain within platelets” value in the data set with Calpain within platelets was “significant inhibition”.
For the molecule `O=c1oc(Cl)c(Cl)c2ccccc12` [3,4-dichloroisocoumarin, reference compound], the “inhibition of spectrin proteolysis in crude brain extracts” value (“inhibition of spectrin proteolysis” below) in data set [1] is reported as “significant inhibition”.
For `O=c1oc(OCc2ccccc2)c(Cl)c2ccccc12` [3-benzyloxy-4-chloroisocoumarin], the “inhibition of spectrin proteolysis” value in data set [1] is “significant inhibition”.
Take `O=c1oc(Cl)cc2ccccc12` [3-chloroisocoumarin, reference compound]: the “inhibition of spectrin proteolysis” value in data set [1] was “significant inhibition”. In addition, the “inhibition of Calpain within platelets” value with Calpain within platelets was “significant inhibition”.
With `N=C(N)SCCCOc1oc(=O)c2cc(NC(=O)CCc3ccccc3)ccc2c1Cl` [7-(3-phenylpropionylamino)-4-chloro-3-(3-isothiureidopropoxy)isocoumarin], in data set [1], the “inhibition of spectrin proteolysis” value was “significant inhibition”. The “inhibition of Calpain within platelets” value in the data set with Calpain within platelets is reported as “significant inhibition”.
`CCCOc1oc(=O)c2cc(NC(C)=O)ccc2c1Cl` [7-(acetylamino)-4-chloro-3-(propoxy)-isocoumarin]: in data set [1], the “inhibition of spectrin proteolysis” value was “significant inhibition”.
Regarding `N=C(N)SCCCOc1oc(=O)c2cc(NC(=O)Cc3ccccc3)ccc2c1Cl` [7-(phenylacetylamino)-4-chloro-3-(3-isothiureidopropoxy)isocoumarin], the “inhibition of spectrin proteolysis” value in data set [1] is recorded as “significant inhibition”. Besides, in the data set with Calpain within platelets, the “inhibition of Calpain within platelets” value is reported as “significant inhibition”.
With `N=C(N)SCCOc1oc(=O)c2cc(NC(=O)Nc3ccccc3)ccc2c1Cl` [7-(phenylcarbamoylamino)-4-chloro-3-(2-isothiureidoethoxy)isocoumarin], the “inhibition of spectrin proteolysis” value in data set [1] was “significant inhibition”. In the data set with Calpain within platelets, the “inhibition of Calpain within platelets” value is “significant inhibition”.
With `N=C(N)SCCCOc1oc(=O)c2cc(NC(=O)Nc3ccccc3)ccc2c1Cl` [7-(phenylcarbamoylamino)-4-chloro-3-(3-isothiureidopropoxy)isocoumarin], the “inhibition of spectrin proteolysis” value in data set [1] is “significant inhibition”. Moreover, the “inhibition of Calpain within platelets” value with Calpain within platelets was “significant inhibition”.
For `CC(=O)NC(C(=O)NC(Cc1ccccc1)C(=O)CCl)C(C)C` (stereo not drawn) [Ac-Val-Phe-CH2Cl] (Ac-Val-Phe-CH2Cl; configuration not given here), in data set [1], the “inhibition of spectrin proteolysis” value was “significant inhibition”.
Regarding `CCOC(=O)C(=O)C(CC)NC(=O)C(CC(C)C)NC(=O)C(C)(C)c1ccccc1` (stereo not drawn) [Ph-(CH3)2 -CO-Leu-Abu-COOEt], at Calpain II, the Ki was 1.2 µM.
Same read-out and setting: in the case of `CC[C@H](NC(=O)[C@H](CC(C)C)NC(=O)OCc1ccccc1)C(=O)C(=O)NCCc1ccccc1` [Z-Leu-Abu-CONH-(CH2)2 -Ph, Z-Leu-Abu-CONH-(CH2)2 Ph] it was 0.022 µM; in that of `CCC(NC(=O)C(CC(C)C)NC(=O)OCc1ccccc1)C(=O)C(=O)NCCO` (stereo not drawn) [Z-Leu-Abu-CONH-(CH2)2 OH], 0.078 µM; in that of `CC[C@H](NC(=O)[C@H](CC(C)C)NC(=O)OCc1ccccc1)C(=O)C(=O)NCCCN1CCOCC1` [Z-Leu-Abu-CONH-(CH2)3 -Mpl, Z-Leu-Abu-CONH--(CH2)3 -N(CH2 CH2)2 O], 0.041 µM.
Same read-out and setting: in the case of `CCCCCCCCNC(=O)C(=O)[C@H](CC)NC(=O)[C@H](CC(C)C)NC(=O)OCc1ccccc1` [Z-Leu-Abu-CONH-(CH2)7 CH3, Z-Leu-Abu-CONH--(CH2)7 CH3] it was 0.019 µM.
For the molecule `CCC(NC(=O)C(CC(C)C)NC(=O)OCc1ccccc1)C(=O)C(=O)NCC(C)C` (stereo not drawn) [Z-Leu-Abu-CONHiBu, Z-Leu-Abu-CONH-iBu], the inhibition constant (Ki) at Cathepsin B was 4 µM; at Calpain II it was 0.14 µM; on PP Elastase, 40 µM; on Chym, more than 300 µM. This molecule showed a t1/2 plasma in “Stability in plasma” of more than 1 h. In the data set on Calpain within platelets, half-maximal inhibition (IC50) required 28 µM.
On to `CCOC(=O)C(=O)C(CC)NC(=O)C(CC(C)C)NC(=O)C(CC(C)C)NC(=O)OCc1ccccc1` (stereo not drawn) [Z-Leu-Leu-Abu-COOEt], for which the inhibitory constant (Ki) is 22 µM on Cathepsin B, 2.6 µM at Calpain II, 25 µM on PP Elastase and more than 100 µM on Chym. Further, the “inhibition of Calpain within platelets” value with Calpain within platelets is “significant inhibition”. The IC50 (usually the concentration at which inhibition is half-maximal) in the data set with Calpain within platelets was found to be 40 µM.
For `CC(C)C[C@H](NC(=O)OCc1ccccc1)C(=O)N[C@@H](Cc1ccccc1)C(=O)C(=O)NCCc1ccccc1` [Z-Leu-Phe-CONH(CH2)2 Ph, Z-Leu-Phe-CONH-(CH2)2 Ph], the inhibition constant Ki on Calpain II was 0.024 µM; on Chym, 2 µM. In addition, in the data set “Stability in plasma”, the t1/2 plasma is more than 1 h. Moreover, the midpoint of inhibition with Calpain within platelets, the IC50, lay at 3 µM.
`CC(C)C[C@H](NC(=O)OCc1ccccc1)C(=O)N[C@@H](Cc1ccccc1)C(=O)C(=O)NCc1ccccc1` [Z-Leu-Phe-CONHBz, Z-Leu-Phe-CONH-Bzl]: on Calpain II, the affinity corresponds to a Ki of 0.046 µM.
For the molecule `CC(C)CNC(=O)C(=O)[C@H](Cc1ccccc1)NC(=O)[C@H](CC(C)C)NC(=O)OCc1ccccc1` [Z-Leu-Phe-CONHiBu, Z-Leu-Phe-CONH-iBu], the values for the Ki on Cathepsin B, at Calpain II and on Chym were 4 µM, 0.065 µM and 24 µM, respectively. Also, the t1/2 plasma in the data set “Stability in plasma” is more than 1 h. Further, in the data set on Calpain within platelets, the half-inhibitory concentration (IC50) was found to be 22 µM.
On to Z-Leu-Abu, for which the “inhibition of Calpain within platelets” value in the data set on Calpain within platelets is given as “significant inhibition”.
